The test system of test [1] is PHENOBAC bacterial culture. In words: microbe, parasite or virus in culture. To be noted: for IC50: 20 min, read-out: concentration resulting in an inhibition of the bacteria of about 50%. It counts as cell-based, PHENOBAC mutant bacteria containing Pseudomonas. From the text:
In the rapid toxicity test described herein the dried culture first undergoes rehydration and then respiration development when contacted with aqueous system containing organic material.
In carrying out the test process, a preselected amount of the dried bacterial culture is first charged to a preselected amount of a standardized substrate for the purpose of determining a standard of respiration or activity of the culture. […] Typically, the quantity of bacterial culture is selected to give a good rate of oxygen decline, e.g., a decline of 2-5 mg/liter oxygen over a twenty minute interval. For reference purposes from 5 to 15 grams of culture/500 ml. of sample solution will be sufficient. The standardized substrate used in the test procedure is […] or another standardized medium of known composition. […] During this period, this oxygen respiration activity is measured by measuring the dissolved oxygen content in the substrate. The dissolved oxygen content then is plotted as a function of time. The rate of decline of dissolved oxygen content in the substrate is ascertained at some preselected time where the rate of dissolved oxygen decline is substantial and where the residual oxygen in the sample of greater than 0.5 mg/l oxygen. With bacterial cultures of the type described, this preselected time can be within the range of 10 to 30 minutes. […] Although numerous methods can be used to ascertain the rate of decline of oxygen, the simplest is to determine that rate from a graph by taking the slope (y/x) of the curve at the preselected time.
The organic quality of sewage, in terms of organic content or toxic substance, is measured by repeating the exact same process, using the test sample in place of the standardized sample. In many instances, particularly where the test sample contains a substantial amount of toxic material or organic matter, the test sample may be diluted with distilled water to provide a more accurate measurement. This is done in those cases where the slope of the curve is small. In any event, the test substrate or wastewater to be tested is added to the test vessel containing the bacterial culture and the dissolved oxygen content measured as a function of time. The rate of decline in dissolved oxygen content for the test substrate or wastewater is then determined at the same preselected time utilized for the standard. This rate of decline is then compared to the rate of decline for the standardized substrate. The relative toxicity or inhibition of the test water versus the standardized substrate, can then be calculated by the equation: [formula]
A baseline standard was generated for a bacterial formulation sold under the trademark PHENOBAC by Polybac Corporation by first charging 350 ml of distilled water to a first vessel. The water was then saturated with oxygen by sealing the vessel which was half full of air and shaking it rapidly.

In test [2] the test system is PHENOBAC bacterial culture. In words: microbe, parasite or virus in culture. The settings on record: Pseudomonas, pH 7, read-out: percent inhibition, with prehydration. The method, then: A baseline standard was generated for a bacterial formulation sold under the trademark PHENOBAC by Polybac Corporation by first charging 350 ml of distilled water to a first vessel. The water was then saturated with oxygen by sealing the vessel which was half full of air and shaking it rapidly. The dissolved oxygen content of the sample was then measured to determine if the oxygen level exceeded 5.0 mg/l at a temperature of 20° C. (If the level was above 5.0 mg/l, it was assumed the sample was sufficiently saturated with oxygen to proceed.) After oxygen saturation, the water was charged to a second vessel containing 8 grams of the dried granular PHENOBAC mutant bacteria containing Pseudomonas and 0.6 grams of potassium bicarbonate. The latter acted to buffer the pH in the vessel to approximately 7. A dissolved oxygen probe was then inserted into the vessel and the contents of the vessel stirred while measuring the dissolved oxygen concentration in the vessel. Several measured data points were recorded in one to two minute intervals for a period of about 30 minutes. These values were plotted with dissolved oxygen in mg/liter represented on the ordinant and time (minute) plotted represented on the abscissa. The baseline standard curves are shown as Curves A and J on FIGS. 1 and 2 respectively.
A series of tests was conducted for the purpose of determining the relative toxicity of various phenolic solutions. The general test technique involved the utilization of test samples containing various known concentrations of toxic material, e.g., phenol. The test sample was buffered to a pH of 7 by the addition of sodium hydroxide or sulphuric acid. Measurement of pH using pH paper was found most convenient. Once the pH of the solution was at the appropriate level, the sample was then aerated by placing the sample in a vessel half full of air, sealing the vessel and shaking the vessel vigorously for several minutes. The oxygen saturated 350 ml. solution having a dissolved oxygen content greater than 5.0 mg/l was then introduced to a test vessel containing 8 grams of dried granular PHENOBAC bacterial culture and 0.5 g of sodium bicarbonate. The dissolved oxygen concentration in the closed sealed vessel was then measured and plotted for a series of phenol concentrations in FIG. 1 in the same manner as the baseline standard in Example 1 and also illustrated in FIG. 1. Each curve, B-G, is labeled with respect to the phenol concentration present during the test. Curve A represents the baseline standard. From these curves one can calculate the rate of decline in dissolved oxygen concentration observed at 20 minutes for each phenol concentration. The percent inhibition is then calculated from the various dissolved oxygen decline curves for each phenol concentration in FIG. 1 according to the equation: [formula]
As in Examples 1 and 2, the general technique for these tests involved pretreatment of the wastewater or test solution to achieve a pH of 7.0 and an oxygen saturation of at least 5.0 mg/l. However, prior to adding the test solution to the test vessel containing the dried PHENOBAC culture, the bacteria were allowed to rehydrate 10 minutes in clean water and then the test solution containing phenol was added to the test vessel. In this manner, the initial rehydration of the bacterial populations was carried out in the absence of the chemical being tested. This is the customary prior art procedure. After rehydration, the bacteria were then exposed to the test chemical and its effect on bacterial respiration evaluated.

Where [3] appears, read: Pseudomonas, pH 7, read-out: percent inhibition, preferred contact rehydration.

Converted amounts (≈) assume the structure as drawn. Where two headings read alike, the source gives them in different places.

From patent publication US4620930A, “Process for rapidly determining biological toxicity of wastewater” (priority 1985, dated 1986) come the findings set out here.

Regarding `[Cu+2]` [copper, copper (+2) ion], the “concentration resulting in an inhibition of the bacteria of about 50%” value in test [1] (from FIG. 3, rate of dissolved oxygen decline at 20 minutes versus baseline standard) is 29 mg/L.
Regarding `C=O` [formaldehyde], the IC50 in test [1] (Pseudomonas) was approximately 140 µg/mL (≈ 4.66 mM).
Turning to `Oc1ccccc1` [phenol], in test [1] (Pseudomonas), the IC50 is approximately 1600 µg/mL (≈ 17 mM). In addition, in test [1] (setting [3]), the inhibition at 312 µg/mL was 12%, the inhibition at 625 µg/mL stood at 22%, the inhibition at 1250 µg/mL turned out to be 37% and the inhibition at 2500 µg/mL worked out at 68%. Besides, in test [1] (setting [3]), the inhibition at 5000 µg/mL turned out to be 87% and the inhibition at 10000 µg/mL came out at 98%. The “inhibition or sensitivity of the bacteria, direct contact rehydration compared with prehydration in water” value in test [1] (rehydrated in direct contact with the test phenol solutions rather than in water first) was “greater inhibition or sensitivity”. For the same molecule, in test [2], the inhibition at 312 µg/mL was determined as 10%, the inhibition at 625 µg/mL is 17%, the inhibition at 1250 µg/mL stood at 33% and the inhibition at 2500 µg/mL amounted to 57%. In test [2], the inhibition at 5000 µg/mL amounted to 80% and the inhibition at 10000 µg/mL was 93%.
